# ChEMBL document CHEMBL3885881, “DrugMatrix”
# Species: Rattus norvegicus
# Assay: DrugMatrix - Regimen: Daily Repeat
# Format: toxicity, organism-based, Sprague-Dawley
# Set-up: regimen Daily Repeat, gender Male, age 6-8 weeks
# Conditions: in vivo, po, route oral GAVAGE, vehicle 100 % WATER; for ABSOLUTE BASOPHIL / ABSOLUTE EOSINOPHIL / ABSOLUTE LYMPHOCYTE / ABSOLUTE MONOCYTE / ABSOLUTE SEGMENTED NEUTROPHIL / BASOPHIL / EOSINOPHIL / ERYTHROCYTE COUNT / HEMATOCRIT / HEMOGLOBIN / LEUKOCYTE COUNT / LYMPHOCYTE / MEAN CORPUSCULAR HEMOGLOBIN / MEAN CORPUSCULAR HEMOGLOBIN CONCENTRATION / MEAN CORPUSCULAR VOLUME / MONOCYTE / NEUTROPHIL / NUCLEATED RED BLOOD CELLS / PLATELET COUNT: tissue Blood; for ALANINE AMINOTRANSFERASE / ALBUMIN / ALKALINE PHOSPHATASE / ASPARTATE AMINOTRANSFERASE / BLOOD UREA NITROGEN / CARBON DIOXIDE / CHLORIDE / CHOLESTEROL / CREATINE PHOSPHOKINASE / CREATININE / GLUCOSE / LACTATE DEHYDROGENASE / LIPASE / PHOSPHORUS / POTASSIUM / SODIUM / TOTAL BILIRUBIN / TOTAL PROTEIN / URIC ACID: tissue Plasma
# [1] = 11 mg/kg, 120 h, dose level Low, time 5 day
# [2] = 1100 mg/kg, 72 h, dose level High, time 3 day
# [3] = 1100 mg/kg, 120 h, dose level High, time 5 day
smiles,measurement,setting,value
CNS(=O)(=O)Cc1ccc2[nH]cc(CCN(C)C)c2c1,ABSOLUTE BASOPHIL,[1],0 CELLS/uL
same,ABSOLUTE EOSINOPHIL,[1],33.33 CELLS/uL
same,ABSOLUTE LYMPHOCYTE,[1],13548.33 CELLS/uL
same,ABSOLUTE MONOCYTE,[1],177 CELLS/uL
same,ABSOLUTE SEGMENTED NEUTROPHIL,[1],608 CELLS/uL
same,BASOPHIL,[1],0%
same,EOSINOPHIL,[1],0.33%
same,ERYTHROCYTE COUNT,[1],5.94 x10E6/uL
same,HEMATOCRIT,[1],38.1%
same,HEMOGLOBIN,[1],14.67 G/DL
same,LEUKOCYTE COUNT,[1],14.37 x10E3/uL
same,LYMPHOCYTE,[1],94%
same,MEAN CORPUSCULAR HEMOGLOBIN,[1],24.67 pg
same,MEAN CORPUSCULAR HEMOGLOBIN CONCENTRATION,[1],38.53 G/DL
same,MEAN CORPUSCULAR VOLUME,[1],64.03 fL
same,MONOCYTE,[1],1.33%
same,NEUTROPHIL,[1],4.33%
same,NUCLEATED RED BLOOD CELLS,[1],0 /100WBC
same,PLATELET COUNT,[1],1140 x10E3/uL
same,ALANINE AMINOTRANSFERASE,[1],51 u/L
same,ALBUMIN,[1],4.23 G/DL
same,ALKALINE PHOSPHATASE,[1],398.33 u/L
same,ASPARTATE AMINOTRANSFERASE,[1],85.33 u/L
same,BLOOD UREA NITROGEN,[1],15.67 mg/dL
same,CARBON DIOXIDE,[1],31.67 mmol/L
same,CHLORIDE,[1],101.67 MEQ/L
same,CHOLESTEROL,[1],66 mg/dL
same,CREATINE PHOSPHOKINASE,[1],235 u/L
same,CREATININE,[1],0.17 mg/dL
same,GLUCOSE,[1],139.67 mg/dL
same,LACTATE DEHYDROGENASE,[1],145 u/L
same,LIPASE,[1],10.33 u/L
same,PHOSPHORUS,[1],11.03 mg/dL
same,POTASSIUM,[1],6.19 MEQ/L
same,SODIUM,[1],146.47 MEQ/L
same,TOTAL BILIRUBIN,[1],0.17 mg/dL
same,TOTAL PROTEIN,[1],6.37 G/DL
same,URIC ACID,[1],0.83 mg/dL
same,ABSOLUTE BASOPHIL,[2],0 CELLS/uL
same,ABSOLUTE EOSINOPHIL,[2],0 CELLS/uL
same,ABSOLUTE LYMPHOCYTE,[2],8603 CELLS/uL
same,ABSOLUTE MONOCYTE,[2],74.33 CELLS/uL
same,ABSOLUTE SEGMENTED NEUTROPHIL,[2],922.67 CELLS/uL
same,BASOPHIL,[2],0%
same,EOSINOPHIL,[2],0%
same,ERYTHROCYTE COUNT,[2],5.83 x10E6/uL
same,HEMATOCRIT,[2],35.8%
same,HEMOGLOBIN,[2],13.87 G/DL
same,LEUKOCYTE COUNT,[2],9.6 x10E3/uL
same,LYMPHOCYTE,[2],89.67%
same,MEAN CORPUSCULAR HEMOGLOBIN,[2],23.8 pg
same,MEAN CORPUSCULAR HEMOGLOBIN CONCENTRATION,[2],38.73 G/DL
same,MEAN CORPUSCULAR VOLUME,[2],61.43 fL
same,MONOCYTE,[2],0.67%
same,NEUTROPHIL,[2],9.67%
same,NUCLEATED RED BLOOD CELLS,[2],0 /100WBC
same,PLATELET COUNT,[2],1087.33 x10E3/uL
same,ALANINE AMINOTRANSFERASE,[2],50.33 u/L
same,ALBUMIN,[2],4.07 G/DL
same,ALKALINE PHOSPHATASE,[2],367.67 u/L
same,ASPARTATE AMINOTRANSFERASE,[2],86 u/L
same,BLOOD UREA NITROGEN,[2],12.67 mg/dL
same,CARBON DIOXIDE,[2],30 mmol/L
same,CHLORIDE,[2],101.67 MEQ/L
same,CHOLESTEROL,[2],70.33 mg/dL
same,CREATINE PHOSPHOKINASE,[2],362.67 u/L
same,CREATININE,[2],0.2 mg/dL
same,GLUCOSE,[2],136.67 mg/dL
same,LACTATE DEHYDROGENASE,[2],189.67 u/L
same,LIPASE,[2],10.33 u/L
same,PHOSPHORUS,[2],10.73 mg/dL
same,POTASSIUM,[2],5.86 MEQ/L
same,SODIUM,[2],145.13 MEQ/L
same,TOTAL BILIRUBIN,[2],0.13 mg/dL
same,TOTAL PROTEIN,[2],6.13 G/DL
same,URIC ACID,[2],0.7 mg/dL
same,ABSOLUTE BASOPHIL,[3],0 CELLS/uL
same,ABSOLUTE EOSINOPHIL,[3],40.67 CELLS/uL
same,ABSOLUTE LYMPHOCYTE,[3],8480 CELLS/uL
same,ABSOLUTE MONOCYTE,[3],117.33 CELLS/uL
same,ABSOLUTE SEGMENTED NEUTROPHIL,[3],862 CELLS/uL
same,BASOPHIL,[3],0%
same,EOSINOPHIL,[3],0.33%
same,ERYTHROCYTE COUNT,[3],5.92 x10E6/uL
same,HEMATOCRIT,[3],37.33%
same,HEMOGLOBIN,[3],14.3 G/DL
same,LEUKOCYTE COUNT,[3],9.5 x10E3/uL
same,LYMPHOCYTE,[3],89.67%
same,MEAN CORPUSCULAR HEMOGLOBIN,[3],24.2 pg
same,MEAN CORPUSCULAR HEMOGLOBIN CONCENTRATION,[3],38.27 G/DL
same,MEAN CORPUSCULAR VOLUME,[3],63.17 fL
same,MONOCYTE,[3],1%
same,NEUTROPHIL,[3],9%
same,NUCLEATED RED BLOOD CELLS,[3],0 /100WBC
same,PLATELET COUNT,[3],1190.33 x10E3/uL
same,ALANINE AMINOTRANSFERASE,[3],47.67 u/L
same,ALBUMIN,[3],4.07 G/DL
same,ALKALINE PHOSPHATASE,[3],329 u/L
same,ASPARTATE AMINOTRANSFERASE,[3],87.67 u/L
same,BLOOD UREA NITROGEN,[3],15.67 mg/dL
same,CARBON DIOXIDE,[3],31 mmol/L
same,CHLORIDE,[3],100 MEQ/L
same,CHOLESTEROL,[3],65.67 mg/dL
same,CREATINE PHOSPHOKINASE,[3],337 u/L
same,CREATININE,[3],0.17 mg/dL
same,GLUCOSE,[3],135.33 mg/dL
same,LACTATE DEHYDROGENASE,[3],119.67 u/L
same,LIPASE,[3],10.33 u/L
same,PHOSPHORUS,[3],9.67 mg/dL
same,POTASSIUM,[3],6.24 MEQ/L
same,SODIUM,[3],145.07 MEQ/L
same,TOTAL BILIRUBIN,[3],0.2 mg/dL
same,TOTAL PROTEIN,[3],6.2 G/DL
same,URIC ACID,[3],0.83 mg/dL
